Reference: patent US20110038835A1, “ANILIDES AND ANALOGS AS RHO KINASE INHIBITORS” (The Scripps Research Institute, priority 2007, published 2011)

What was measured:
ROCK-II (1-543) = ROCK-II (1-543) (UniProt Q62868); assay: Enzymatic Rho kinase assay (Kinase-Glo, S6-peptide phosphorylation); assay type: biochemical; settings: 20 μM ATP, 20 μM S6-peptide, 50 min at RT
Description: Enzymatic Rho Kinase (ROCK I and ROCK II) Assays.
The assay is based on ability of Rhok2 to phosphorylate a specific peptide sequence derived from its substrate—ribosomal protein S6 (amino acid residues 229-239). Rhok2 uses ATP as a donor of phosphate for the phosphorylation of the substrate, which leads to the depletion of ATP in the reaction mix. An assay kit (“Kinase-Glo”, Promega) was used to quantify enzyme activity. Using this kit, residual amounts of ATP are measured by a secondary enzymatic reaction, through which luciferase utilizes the remaining ATP to produce luminescence. Luminescent signal is directly proportional to ATP concentration and inversely proportional to Rhok2 activity.
This dose response assay was conducted in 1536 well plate format. Each concentration was tested nominally in triplicate. Protocol Summary: A 5 μL mixture of a 20 μM S6-peptide (LCB-[…]-NH2) and 20 μM ATP in Kinase buffer (50 mM Hepes pH 7.3, 10 mM MgCl2, 0.1% BSA, and 2 mM DTT) was added to the well of a plate. 20 nL of 90% DMSO/10% water containing the compound(s) to be tested (or no compound for control wells) was added. The reaction was initiated by addition of 5 μL of 8 nM ROCK-II (1-543) in Kinase buffer. […] The plate was read after 10 min incubation time at RT on the Viewlux in luminescence mode.

N2a cells = assay: Neurite length assay (N2a cell assay); assay type: cell-based; settings: Mus musculus, compound 1 h, neurite retraction induced by 5 uM LPA
Description: Neurite Length Assay (N2a, Cell Assay).
N2a cells are maintained in DMEM/FBS at 37 C and 5% CO2. For the experiment the cells were plated on a poly-D-lysine coated 96-well tissue culture plate. After attachment, cell differentiation was induced for 2 days by addition of 10 uM retinoic acid. Cells were treated for 1 h with a dilution of compounds in 0.3% DMSO final concentration before neurite retraction was induced by 5 uM LPA. Cells were stained for tubulin and nuclei and images were acquired on a INCell 1000 workstation. Images were analyzed using the developer toolbox and neurite length was quantitated.

A7r5 cells = assay: Myosin light chain double phosphorylation assay (ppMLC cell assay); assay type: cell-based; settings: inhibitor 1 h, 10 μM LPA for 10 min
Description: Myosin Light Chain Double Phosphorylation Assays (ppMLC Cell Assay).
A7r5 cells were plated at 5000 cells/well in a 96 well Packard View Plate (Perkin Elmer) in DMEM +10% FBS. After attachment overnight, cells were serum starved for 4 h and treated with inhibitor in 0.25% DMSO final concentration for 1 h at 37° C. Cells were then treated with 10 μM lysophosphatitic acid (LPA) for 10 min. Following treatment, cells were immediately fixed with 4% paraformaldehyde for 30 minutes. After a brief wash in 0.1 M glycine, cells were permeablized in 0.2% Triton X for 10 minutes. Cells were then washed once in PBS and blocked in Li-COR blocking buffer (Li-COR Biosciences) for 1 h at 25 C. Cells were probed for either phosphorylated myosin light chain 20 (55 ng/mL), total myosin light chain (525 ng/mL) or anti-bovine α-tubulin (1 μg/mL), and incubated overnight at 4° C. Following three washes, cells were probed with goat-anti-rabbit or goat-anti-mouse IR800 (2 μg/mL in LI-COR block +0.025% Tween) for 1 h at 25° C. Nuclei were stained with TO-PRO-3 iodide (642/661) (1:4000) for 20 min, washed twice in PBS/0.05% Tween and read with an Odyssey Infrared Imaging System (LI-COR Biosciences).

IC50 (ROCK-II (1-543)): 19 nM
IC50 (N2a cells): 18 nM
IC50 (A7r5 cells): 110 nM
Structure (SMILES): CN(C)CCOc1cc(-c2cn[nH]c2)c(F)cc1NC(=O)[C@H](N)c1ccc(F)cc1 [Example 26, (R)-2-amino-N-(2-(2-(dimethylamino)ethoxy)-5-fluoro-4-(1H-pyrazol-4-yl)phenyl)-2-(4-fluorophenyl)acetamide]
